Reference: patent US20060003920A1, “LAT1 transporters expressed in cancer cells” (Xenoport, Inc., priority 2004, published 2006)

Biological target: T1, LAT1 and 4F2HC (Homo sapiens, UniProt Q01650)
T1 construct: expressed in transfected cells; host or cells: Xenopus oocytes, injected with in vitro transcribed cRNA
Test: 14C-gabapentin uptake into Xenopus oocytes expressing LAT1 and 4F2HC
Assay type: cell-based
Settings: Xenopus oocytes injected with LAT1 and 4F2HC cRNA vs noninjected controls
Excerpt: To assess transport function of a specific transporter protein, it can be desirable to clone the cDNA and express the protein in cells that have low endogenous transport activity. Human LAT1 was cloned by PCR, fully sequenced, and subcloned into plasmids that can be used for expression in mammalian cells or Xenopus oocytes. The co-subunit required for LAT1 function, 4F2HC (Genbank accession AB018010), was also cloned and sequenced. Unless otherwise noted, 4F2HC was also co-expressed in each heterologous system described in the examples. […] For expression in Xenopus oocytes, in vitro LAT1 and 4F2HC cRNA was prepared and injected into defoliculated oocytes.

T1 sequence (Q01650 whole entry): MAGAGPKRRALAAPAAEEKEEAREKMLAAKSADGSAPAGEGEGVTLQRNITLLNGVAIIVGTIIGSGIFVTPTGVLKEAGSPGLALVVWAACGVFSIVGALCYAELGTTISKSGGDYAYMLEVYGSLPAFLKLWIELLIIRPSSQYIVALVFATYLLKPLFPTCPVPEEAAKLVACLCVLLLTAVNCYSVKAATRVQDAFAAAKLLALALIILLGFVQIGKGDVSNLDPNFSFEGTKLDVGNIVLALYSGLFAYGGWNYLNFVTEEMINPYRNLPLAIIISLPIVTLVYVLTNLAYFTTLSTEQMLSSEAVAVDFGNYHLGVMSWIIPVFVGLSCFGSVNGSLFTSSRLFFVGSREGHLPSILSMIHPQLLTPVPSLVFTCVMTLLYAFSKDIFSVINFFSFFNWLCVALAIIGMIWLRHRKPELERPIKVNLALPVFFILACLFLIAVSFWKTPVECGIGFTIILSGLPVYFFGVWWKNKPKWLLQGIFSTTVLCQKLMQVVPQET
T1 sequence (P08195 102-630 partner): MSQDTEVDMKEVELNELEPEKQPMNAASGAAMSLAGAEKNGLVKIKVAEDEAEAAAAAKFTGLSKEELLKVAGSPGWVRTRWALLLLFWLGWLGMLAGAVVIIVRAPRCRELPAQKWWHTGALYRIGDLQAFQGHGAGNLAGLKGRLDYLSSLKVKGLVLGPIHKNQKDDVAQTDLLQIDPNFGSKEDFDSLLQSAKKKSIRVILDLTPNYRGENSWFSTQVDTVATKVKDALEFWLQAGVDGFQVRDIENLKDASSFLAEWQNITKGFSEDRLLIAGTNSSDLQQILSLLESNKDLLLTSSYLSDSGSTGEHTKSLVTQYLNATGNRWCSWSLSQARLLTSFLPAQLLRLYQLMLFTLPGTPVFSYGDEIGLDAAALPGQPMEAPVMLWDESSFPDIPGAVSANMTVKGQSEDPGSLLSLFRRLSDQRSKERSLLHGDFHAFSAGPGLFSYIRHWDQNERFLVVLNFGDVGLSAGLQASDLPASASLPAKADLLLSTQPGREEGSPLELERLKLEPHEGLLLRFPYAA

NCC1(CC(=O)O)CCCCC1 [Gabapentin]
14C-gabapentin uptake into oocytes: higher levels of 14C-gabapentin uptake than noninjected controls
